Source: patent publication US9321790B2, “Pyrimidinone derivatives as antimalarial agents” (SANOFI, priority 2012, dated 2016)

Legend:
[1] = test system: Plasmodium falciparum (strain NF54); assay: Antimalarial activity test: growth of Plasmodium falciparum in infected human erythrocytes, 3H-hypoxanthine incorporation; format: cell-based; settings: Plasmodium falciparum, Erythrocyte, strain NF54 sensitive to chloroquine, 72 h total incubation
In short: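 Chloroquine-sensitive NF54 parasites in human erythrocytes (1.25% hematocrit, 0.15% parasitemia) were grown in hypoxanthine-free RPMI 1640 with HEPES and Albumax II, with compound in twofold serial dilution, at 37 °C under 93% N2/4% CO2/3% O2. After 48 h, 3H-hypoxanthine (0.5 μCi) was added for 24 h. Scintillation counts versus drug-free control gave IC50.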

human PI3Kα = human PI3Kα (Homo sapiens (Human), UniProt P42336); assay: Human PI3Kα activity test (luciferin/luciferase ATP consumption, KinaseGlo); format: biochemical; settings: PI3Kα (p110α/p85α), 50 μM PIP2, 2 μM ATP, 90 minutes; read-out: IC50 Human PI3Kα
Chain of human PI3Kα (P42336 whole entry): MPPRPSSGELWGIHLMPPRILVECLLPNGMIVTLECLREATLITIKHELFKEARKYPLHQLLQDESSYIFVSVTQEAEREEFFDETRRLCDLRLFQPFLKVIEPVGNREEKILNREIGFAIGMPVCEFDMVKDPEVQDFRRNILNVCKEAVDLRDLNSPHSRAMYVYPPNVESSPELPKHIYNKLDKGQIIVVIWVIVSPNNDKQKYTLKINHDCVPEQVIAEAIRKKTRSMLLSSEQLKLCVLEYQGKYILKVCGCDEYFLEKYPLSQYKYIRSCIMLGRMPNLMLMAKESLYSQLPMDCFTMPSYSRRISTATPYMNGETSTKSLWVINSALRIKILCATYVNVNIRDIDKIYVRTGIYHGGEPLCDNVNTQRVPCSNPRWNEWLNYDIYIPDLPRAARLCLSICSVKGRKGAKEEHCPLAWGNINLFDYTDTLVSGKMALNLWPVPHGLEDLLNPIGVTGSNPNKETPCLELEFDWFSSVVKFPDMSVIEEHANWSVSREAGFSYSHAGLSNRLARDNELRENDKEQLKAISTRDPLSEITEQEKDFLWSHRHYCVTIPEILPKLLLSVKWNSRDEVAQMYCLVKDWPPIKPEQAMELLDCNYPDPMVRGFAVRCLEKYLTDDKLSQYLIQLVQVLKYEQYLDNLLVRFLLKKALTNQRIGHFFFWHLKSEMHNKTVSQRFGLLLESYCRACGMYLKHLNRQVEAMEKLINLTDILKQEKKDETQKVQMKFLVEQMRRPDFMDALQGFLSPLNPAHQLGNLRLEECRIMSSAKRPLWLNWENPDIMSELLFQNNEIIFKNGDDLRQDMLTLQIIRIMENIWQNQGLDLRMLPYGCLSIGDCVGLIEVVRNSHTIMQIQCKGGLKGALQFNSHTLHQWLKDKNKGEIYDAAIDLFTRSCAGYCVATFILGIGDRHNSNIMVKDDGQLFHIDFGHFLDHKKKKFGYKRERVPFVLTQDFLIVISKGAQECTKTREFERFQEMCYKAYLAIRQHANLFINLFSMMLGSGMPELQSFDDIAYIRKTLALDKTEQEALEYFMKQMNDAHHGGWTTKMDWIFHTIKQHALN
Chain of human PI3Kα (P27986 whole entry partner): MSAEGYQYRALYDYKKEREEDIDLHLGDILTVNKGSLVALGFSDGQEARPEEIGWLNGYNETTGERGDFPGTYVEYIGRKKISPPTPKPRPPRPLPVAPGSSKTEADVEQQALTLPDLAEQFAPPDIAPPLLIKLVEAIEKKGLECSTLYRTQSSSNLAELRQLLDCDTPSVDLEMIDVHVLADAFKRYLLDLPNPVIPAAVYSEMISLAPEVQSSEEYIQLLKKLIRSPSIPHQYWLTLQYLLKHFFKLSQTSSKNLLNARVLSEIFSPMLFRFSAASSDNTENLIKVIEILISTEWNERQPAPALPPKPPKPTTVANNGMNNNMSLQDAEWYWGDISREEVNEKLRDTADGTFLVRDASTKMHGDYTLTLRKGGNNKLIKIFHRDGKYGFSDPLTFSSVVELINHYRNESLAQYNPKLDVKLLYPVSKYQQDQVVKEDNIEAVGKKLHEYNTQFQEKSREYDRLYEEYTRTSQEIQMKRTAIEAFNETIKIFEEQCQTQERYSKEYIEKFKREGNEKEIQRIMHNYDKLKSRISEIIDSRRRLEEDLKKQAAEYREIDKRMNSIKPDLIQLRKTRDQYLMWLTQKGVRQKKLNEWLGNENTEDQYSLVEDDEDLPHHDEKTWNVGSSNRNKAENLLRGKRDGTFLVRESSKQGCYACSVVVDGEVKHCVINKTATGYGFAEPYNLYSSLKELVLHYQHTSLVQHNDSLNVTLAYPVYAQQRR
Description: The test uses a luciferin/luciferase system to measure the concentration of ATP and its consumption during the enzymatic reaction.
After 90 minutes, the reaction is quenched by adding 20 μl/well of KinaseGlo reagent (Promega V6713). After 10 minutes in the dark, the luminescence is read using a PHERAStar microplate reader (reading at 0.8 sec/well).

- IC50 [1]: 43 nM
- IC50 (human PI3Kα): 4000 nM
SMILES: O=C(CN1c2nc(N3C[C@@H]4C[C@H]3CO4)cc(=O)n2CC[C@H]1C(F)(F)F)C1CC1 [Compound 67, (8S)-9-(2-Cyclopropyl-2-oxoethyl)-2-(1S,4S)-2-oxa-5-azabicyclo[2.2.1]hept-5-yl-8-trifluoromethyl-6,7,8,9-tetrahydropyrimido[1,2-a]pyrimidin-4-one]
